Test: xn = mol fraction of the nth substance listed
Conditions: 101 kPa

CCCCCCCCCCCCCC[n+]1ccccc1.O=C([O-])C(O)c1ccccc1 + CC(C)[C@H](N)C(=O)O + O
electrical conductivity [S/m]
Conditions	293.15 K	298.15 K	303.15 K	308.15 K	313.15 K
x1 = 6.19e-06, x2 = 0.001799	0.00217	0.00247	0.00278	0.00312	0.00346
x1 = 6.85e-06, x2 = 0	0.00248	0.00278	0.00309	0.0034	0.0037
x1 = 8.87e-06, x2 = 0.0009002	0.00274	0.00311	0.00349	0.00388	0.00427
x1 = 1.146e-05, x2 = 0.001799	0.00366	0.00413	0.00464	0.0052	0.0057
x1 = 1.424e-05, x2 = 0	0.00472	0.00529	0.00587	0.0065	0.0071
x1 = 1.485e-05, x2 = 0.0009002	0.00439	0.00496	0.00555	0.0061	0.0068
x1 = 1.674e-05, x2 = 0.001799	0.0051	0.00578	0.0065	0.0072	0.008
x1 = 1.847e-05, x2 = 0.0009002	0.00537	0.00606	0.0068	0.0075	0.0083
x1 = 2.126e-05, x2 = 0	0.00671	0.0076	0.0084	0.0093	0.0101
x1 = 2.202e-05, x2 = 0.001799	0.00655	0.0074	0.0083	0.0093	0.0102
x1 = 2.264e-05, x2 = 0.0009002	0.00641	0.0072	0.0081	0.009	0.0099
x1 = 2.693e-05, x2 = 0.001799	0.00788	0.0089	0.01	0.0111	0.0123
x1 = 2.698e-05, x2 = 0.0009002	0.00756	0.0086	0.0096	0.0106	0.0117
x1 = 2.811e-05, x2 = 0	0.0086	0.0097	0.0108	0.0122	0.0131
x1 = 3.187e-05, x2 = 0.0009002	0.0089	0.01	0.0113	0.0125	0.0138
x1 = 3.257e-05, x2 = 0.001799	0.0094	0.0106	0.0119	0.0132	0.0146
x1 = 3.46e-05, x2 = 0	0.0103	0.0116	0.0129	0.0145	0.0157
x1 = 3.876e-05, x2 = 0.001799	0.0107	0.0121	0.0136	0.0152	0.0169
x1 = 3.93e-05, x2 = 0.0009001	0.0105	0.0119	0.0133	0.0148	0.0164
x1 = 4.108e-05, x2 = 0	0.0117	0.0131	0.0146	0.0161	0.0179
x1 = 4.549e-05, x2 = 0.001799	0.0119	0.0134	0.0151	0.0169	0.0188
x1 = 4.618e-05, x2 = 0.0009001	0.0116	0.0131	0.0147	0.0165	0.0183
x1 = 4.811e-05, x2 = 0	0.0129	0.0144	0.0161	0.0179	0.0198
x1 = 5.295e-05, x2 = 0.001799	0.0129	0.0146	0.0164	0.0183	0.0203
x1 = 5.324e-05, x2 = 0.0009001	0.0126	0.0142	0.0159	0.0178	0.0198
x1 = 5.388e-05, x2 = 0	0.0137	0.0154	0.0172	0.0191	0.0211
x1 = 5.982e-05, x2 = 0	0.0145	0.0163	0.0182	0.0202	0.0224
x1 = 6.012e-05, x2 = 0.0009001	0.0134	0.015	0.017	0.0191	0.0212
x1 = 6.078e-05, x2 = 0.001799	0.014	0.0158	0.0177	0.0198	0.0221
x1 = 6.559e-05, x2 = 0	0.0153	0.0172	0.0192	0.0213	0.0236
x1 = 6.609e-05, x2 = 0.0009001	0.0142	0.016	0.018	0.0202	0.0224
x1 = 6.788e-05, x2 = 0.001799	0.015	0.0169	0.0189	0.0211	0.0236
x1 = 7.081e-05, x2 = 0	0.016	0.018	0.02	0.0223	0.0246
x1 = 7.153e-05, x2 = 0.0009001	0.0149	0.0168	0.0189	0.0212	0.0236
x1 = 7.424e-05, x2 = 0.001799	0.0158	0.0179	0.0201	0.0224	0.0249
x1 = 7.604e-05, x2 = 0	0.0167	0.0187	0.0209	0.0232	0.0258
x1 = 7.714e-05, x2 = 0.0009001	0.0156	0.0176	0.0198	0.0223	0.0248
x1 = 8.025e-05, x2 = 0.001799	0.0166	0.0188	0.0211	0.0236	0.0262
x1 = 8.072e-05, x2 = 0	0.0173	0.0194	0.0217	0.0241	0.0266
x1 = 8.257e-05, x2 = 0.0009001	0.0163	0.0185	0.0208	–	–

Source: the CheMixHub ionic liquid set
